Assay results as given in patent US20110020457A1, “POLYMER-SURFACTANT NANOPARTICLES FOR SUSTAINED RELEASE OF COMPOUNDS” (Wayne State University, priority 2006, published 2011).
“Also recorded” adds a separate entry of the source. Read-outs that look alike come from different tables or passages of the source. Values belong to the compound of their own block, whether it stands above or below them.

Legend:
[1] = system: NCI-ADR/RES cells; assay: Cytotoxicity in drug-resistant cells, MTS assay (Example 5); format: cell-based
Protocol: (§1) For cytotoxicity studies, NCI-ADR/RES or MCF-7 cells were seeded in 96-well plates at a seeding density of 5000-10000 cells per well per 0.1 mL of medium and allowed to attach overnight. […] Untreated cells and empty nanoparticles were used as controls. […] Cytotoxicity was determined over a period of 10 days using a commercially available MTS assay (Promega). Results were analyzed by using an ANOVA. Differences were considered significant at P<0.05.

[2] = pH 7.4
Protocol: In vitro release studies: In vitro release of nanoparticle-encapsulated drug was determined under sink conditions. The term “sink conditions” refers to release conditions in which the volume of the buffer used is sufficient to dissolve all of the drug present in the delivery system. Such conditions are used to assure that the amount of drug released is not limited by the degree of solubility in the buffer or solvent used. Nanoparticles (˜5 mg) were dispersed in 0.5 ml of phosphate-buffered saline (PBS, pH 7.4, 0.15M) and suspended in DispoDialyzer® (10 kDa MWCO, Pierce) dialysis tubes. These were then placed in a 15-ml centrifuge tube containing 10 ml of PBS. The whole assembly was shaken at 100 rpm and 37.0±0.5° C. in an orbital shaker (Brunswick Scientific, C24 incubator shaker, NJ). […] Drug concentration in the release samples was determined as in drug loading determinations. Stability of different drugs under in vitro release conditions was determined and the drug release profile was corrected for degradation, if any.
Initially, the stability of these drugs under the release conditions (PBS, pH 7.4 and 37° C.) were investigated.

[3] = system: NCI-ADR/RES cells; assay: Intracellular distribution of doxorubicin by fluorescence microscopy; format: cell-based; conditions: 2.5 μg/mL doxorubicin, 2 h
Protocol: At the end of the treatment period, cells were washed three times with cold PBS and then lysed using 100 μL of cell culture lysis reagent (CCLR; Promega). The protein content of the cell lysates was determined using the Pierce (Rockford, Ill.) BCA protein assay. Cell lysates were then mixed with 300 μL of methanol and incubated at 37° C. for 6 h at 100 rpm. Samples were centrifuged at 14 000 rpm for 10 min at 4° C. The concentration of rhodamine in the methanolic extract was determined by HPLC as described before. Data were expressed as rhodamine accumulation normalized to total cell protein. For fluorescence microscopy, the uptake and intracellular distribution of doxorubicin in NCI-ADR/RES cells were determined qualitatively using fluorescence microscopy. Cells ([…]) were seeded on coverslips placed in 35 mm dishes.
At 2 h post-treatment, cells were rinsed with drug-free medium and incubated with 75 nM Lysotracker Green (Invitrogen) for 30 min. Cells were then washed and counterstained with DAPI (4′,6-diamidino-2-phenylindole, Invitrogen). Images were captured with a BX60 Olympus fluorescence microscope. Images captured using red, blue, and green filters were overlaid to determine localization and association of doxorubicin-associated red fluorescence in the nucleus and endolysosomes, respectively.

[4] = cited from earlier work
[5] = system: MCF-7 cells; assay: Cytotoxicity in drug-sensitive cells, MTS assay (Example 5); format: cell-based, Human; conditions: doxorubicin in solution
Protocol: as §1

[6] = system: JC tumors (doxorubicin-resistant mammary adenocarcinoma); assay: Tumor growth after combination PDT and chemotherapy in drug-resistant tumor; format: in vivo, female Balb/c mice; conditions: single i.v. dose, 4 mg/kg doxorubicin
From the text: FIG. 16. Nanoparticle-mediated combination PDT and chemotherapy overcame tumor drug resistance in vivo. […] About twenty four hours after treatment administration, tumors were exposed to light of 665 nm wavelength (50 J/cm^2). Animals were then monitored for tumor growth. The results are shown as percent increase in tumor volume as a function of time after treatment (days), with the various treatment protocols.
Nanoparticle-mediated combination PDT-chemotherapy inhibited drug-resistant tumor growth. The in vivo efficacy of nanoparticle-mediated combination chemo- and photodynamic therapy was studied in a mouse model of drug-resistant tumor. Drug-resistant JC tumors (doxorubicin-resistant mammary adenocarcinoma) grown subcutaneously in female Balb/c mice were used in these experiments. Mice were administered a single i.v. dose of the different treatments. […] About 24 hrs after treatment administration, tumors were exposed to light of 665 nm wavelength (50 J/cm^2). Animals were then monitored for tumor growth.

[7] = system: MCF-7 cells; assay: Cytotoxicity of methylene blue PDT; conditions: 0.3 or 0.6 μM, no light
[8] = system: ROS; assay: Nanoparticle-mediated ROS generation ex vitro (APF fluorescence); conditions: photo-activated
From the text: PBS and empty nanoparticles were used as negative controls. To determine the effect of dose of light on the amount of ROS generated, above samples were photo-activated with 10 consecutive doses of light (1200 mJ/cm^2 per dose) measuring fluorescence after each illumination. […] Experiments performed as above but without light irradiation were used as light negative controls.

[9] = also after multiple dosing; cited from earlier work

SMILES: COc1cccc2c1C(=O)c1c(O)c3c(c(O)c1C2=O)C[C@@](O)(C(=O)CO)C[C@@H]3O[C@H]1C[C@H](N)[C@H](O)[C@H](C)O1 [Doxorubicin]
Concentration required to induce cytotoxicity ([1]; doxorubicin in solution, drug-resistant cells): > 50 µg/mL
Stability under the release conditions [2]: biphasic, first-order degradation profile
Doxorubicin in nuclei of cells [3]: No or insignificant doxorubicin fluorescence
Intracellular distribution of doxorubicin ([3]; listed as Free doxorubicin): diffuse distribution within the cells, with a significant fraction appearing in vesicles located near the cell membrane; also recorded: present near the cell surface
pKa [4]: ~8.2
Ionized fraction ([4]; pH 7.4): about 86%
Cytotoxicity in drug-sensitive cells [5]: dose-dependent cytotoxicity
Therapeutic effect on tumor growth [6]: did not show a significant therapeutic effect

Stability under the release conditions [2]: stable
SMILES: O=C(O)Cc1ccccc1Nc1c(Cl)cccc1Cl [Diclofenac, diclofenac sodium]

SMILES: COc1ccc(CCN(C)CCCC(C#N)(c2ccc(OC)c(OC)c2)C(C)C)cc1OC (stereo not drawn) [Verapamil]
Effect on resistance to doxorubicin ([1]; verapamil 23.0 μg/mL with doxorubicin 0.4 μg/mL in solution): reversed the resistance to doxorubicin

SMILES: CN(C)c1ccc2nc3ccc(=[N+](C)C)cc-3sc2c1 [methylene blue, Methylene blue]
Cytotoxic effect without light-activation [7]: no significant effect
Increase in fluorescence at 0.6 μM compared to 0.3 μM [8]: 2 fold

Stability under the release conditions [2]: stable
SMILES: Clc1cccc(Cl)c1N=C1NCCN1 [Clonidine]

SMILES: CCCCC(CC)COC(=O)CC(C(=O)OCC(CC)CCCC)S(=O)(=O)[O-].[Na+] (stereo not drawn) [AOT, dioctylsodium sulfosuccinate]
pKa ([4]; sulfonic group): < 1
Elimination and accumulation in the body [9]: easily removed from the body through renal elimination, and does not accumulate
